Earlier results, collected in publication PMC8513935.

Experiments:
[1] = experimental, compiled by the authors from the literature (the ESI cites the sources)
[2] = derived by the authors as gas->solvent minus gas->water (a hypothetical dry solvent; the ESI), not a two-phase measurement
[3] = log P octanol/water from commercial databases, averaged (the ESI); conditions: Octanol (wet), 25 C

Q: With `Cc1ccc(O)cc1` as the molecule, how does the log K of transfer, gas to solvent ([1]; 1,2-Dichloroethane, 25 C) read?
A: 5.68 log10 K

Q: And the log K of transfer, gas to solvent ([1]; Benzene, 25 C)?
A: 5.39 log10 K

Q: And the log K of transfer, gas to solvent ([1]; CCl4, 25 C)?
A: 4.72 log10 K

Q: What about the log K of transfer, gas to solvent ([1]; Chlorobenzene, 25 C) of the same molecule?
A: 5.3 log10 K

Q: What about the log K of transfer, gas to solvent ([1]; Chloroform, 25 C) of the same molecule?
A: 5.56 log10 K

Q: And the log K of transfer, gas to solvent ([1]; Cyclohexane, 25 C)?
A: 4.36 log10 K

Q: What about the log K of transfer, gas to solvent ([1]; Dichloromethane, 25 C) of the same molecule?
A: 5.65 log10 K

Q: What about the log K of transfer, gas to solvent ([1]; Hexadecane, 25 C) of the same molecule?
A: 4.31 log10 K

Q: And the log K of transfer, gas to solvent ([1]; Hexane, 25 C)?
A: 4.16 log10 K

Q: And the log K of transfer, gas to solvent ([1]; Perfluoroalkane, 25 C)?
A: 2.67 log10 K

Q: What about the log K of transfer, gas to solvent ([1]; Water, 25 C) of the same molecule?
A: 4.5 log10 K

Q: What about the log K of transfer, water to solvent ([2]; 1,2-Dichloroethane, 25 C) of the same molecule?
A: 1.18 log10 K

Q: And the log K of transfer, water to solvent ([2]; Benzene, 25 C)?
A: 0.89 log10 K

Q: And the log K of transfer, water to solvent ([2]; CCl4, 25 C)?
A: 0.22 log10 K

Q: And the log K of transfer, water to solvent ([2]; Chlorobenzene, 25 C)?
A: 0.8 log10 K

Q: What about the log K of transfer, water to solvent ([2]; Chloroform, 25 C) of the same molecule?
A: 1.06 log10 K

Q: And the log K of transfer, water to solvent ([2]; Cyclohexane, 25 C)?
A: -0.14 log10 K

Q: And the log K of transfer, water to solvent ([2]; Dichloromethane, 25 C)?
A: 1.15 log10 K

Q: And the log K of transfer, water to solvent ([2]; Hexadecane, 25 C)?
A: -0.188 log10 K

Q: What about the log K of transfer, water to solvent ([2]; Hexane, 25 C) of the same molecule?
A: -0.34 log10 K

Q: And the log K of transfer, water to solvent ([2]; Perfluoroalkane, 25 C)?
A: -1.83 log10 K

Q: What about the log K of transfer, water to solvent [3] of the same molecule?
A: 1.97 log10 K

Q: For `O=C1CCCC1`, which log K of transfer, gas to solvent ([1]; 1,2-Dichloroethane, 25 C) is on record?
A: 4.59 log10 K

Q: What about the log K of transfer, gas to solvent ([1]; CCl4, 25 C) of the same molecule?
A: 4.06 log10 K

Q: What about the log K of transfer, gas to solvent ([1]; Di-n-butyl ether, 25 C) of the same molecule?
A: 3.53 log10 K

Q: What about the log K of transfer, gas to solvent ([1]; Hexadecane, 25 C) of the same molecule?
A: 3.22 log10 K

Q: What about the log K of transfer, gas to solvent ([1]; Octan-1-ol, 25 C) of the same molecule?
A: 3.67 log10 K

Q: What about the log K of transfer, gas to solvent ([1]; Water, 25 C) of the same molecule?
A: 3.45 log10 K

Q: And the log K of transfer, water to solvent ([2]; 1,2-Dichloroethane, 25 C)?
A: 1.14 log10 K

Q: What about the log K of transfer, water to solvent ([2]; CCl4, 25 C) of the same molecule?
A: 0.61 log10 K

Q: What about the log K of transfer, water to solvent ([2]; Di-n-butyl ether, 25 C) of the same molecule?
A: 0.08 log10 K

Q: And the log K of transfer, water to solvent ([2]; Hexadecane, 25 C)?
A: -0.229 log10 K

Q: And the log K of transfer, water to solvent ([2]; Octan-1-ol(dry), 25 C)?
A: 0.22 log10 K

Q: And the log K of transfer, water to solvent [3]?
A: 0.38 log10 K

Q: Which log K of transfer, gas to solvent ([1]; 2-Methylpropan-1-ol, 25 C) does the source give for `c1ccc2cc3ccccc3cc2c1` here?
A: 7.16 log10 K

Q: What about the log K of transfer, gas to solvent ([1]; 2-Methylpropan-2-ol, 25 C) of the same molecule?
A: 7.12 log10 K

Q: What about the log K of transfer, gas to solvent ([1]; 3-Methylbutan-1-ol, 25 C) of the same molecule?
A: 7.28 log10 K

Q: What about the log K of transfer, gas to solvent ([1]; Acetonitrile, 25 C) of the same molecule?
A: 7.66 log10 K

Q: And the log K of transfer, gas to solvent ([1]; Benzene, 25 C)?
A: 8.38 log10 K

Q: What about the log K of transfer, gas to solvent ([1]; Butan-1-ol, 25 C) of the same molecule?
A: 7.42 log10 K

Q: What about the log K of transfer, gas to solvent ([1]; Butan-2-ol, 25 C) of the same molecule?
A: 7.26 log10 K

Q: What about the log K of transfer, gas to solvent ([1]; Butanone, 25 C) of the same molecule?
A: 8.32 log10 K

Q: What about the log K of transfer, gas to solvent ([1]; Butyronitrile, 25 C) of the same molecule?
A: 8.17 log10 K

Q: And the log K of transfer, gas to solvent ([1]; CCl4, 25 C)?
A: 8.17 log10 K

Q: And the log K of transfer, gas to solvent ([1]; Chlorobenzene, 25 C)?
A: 8.45 log10 K

Q: What about the log K of transfer, gas to solvent ([1]; Chloroform, 25 C) of the same molecule?
A: 8.4 log10 K

Q: What about the log K of transfer, gas to solvent ([1]; Cyclohexane, 25 C) of the same molecule?
A: 7.52 log10 K

Q: And the log K of transfer, gas to solvent ([1]; Cyclohexanone, 25 C)?
A: 8.53 log10 K

Q: What about the log K of transfer, gas to solvent ([1]; Decan-1-ol, 25 C) of the same molecule?
A: 7.71 log10 K

Q: And the log K of transfer, gas to solvent ([1]; Di-n-butyl ether, 25 C)?
A: 7.79 log10 K

Q: What about the log K of transfer, gas to solvent ([1]; Dichloromethane, 25 C) of the same molecule?
A: 8.62 log10 K

Q: What about the log K of transfer, gas to solvent ([1]; Diethyl Ether, 25 C) of the same molecule?
A: 7.97 log10 K

Q: And the log K of transfer, gas to solvent ([1]; Ethanol, 25 C)?
A: 7.62 log10 K

Q: What about the log K of transfer, gas to solvent ([1]; Heptan-1-ol, 25 C) of the same molecule?
A: 7.58 log10 K

Q: And the log K of transfer, gas to solvent ([1]; Hexadecane, 25 C)?
A: 7.56 log10 K

Q: And the log K of transfer, gas to solvent ([1]; Hexan-1-ol, 25 C)?
A: 7.53 log10 K

Q: What about the log K of transfer, gas to solvent ([1]; Hexane, 25 C) of the same molecule?
A: 7.45 log10 K

Q: And the log K of transfer, gas to solvent ([1]; Methanol, 25 C)?
A: 7.25 log10 K

Q: What about the log K of transfer, gas to solvent ([1]; Octan-1-ol, 25 C) of the same molecule?
A: 7.55 log10 K

Q: What about the log K of transfer, gas to solvent ([1]; Pentan-1-ol, 25 C) of the same molecule?
A: 7.46 log10 K

Q: What about the log K of transfer, gas to solvent ([1]; Propan-1-ol, 25 C) of the same molecule?
A: 7.36 log10 K

Q: And the log K of transfer, gas to solvent ([1]; Propan-2-ol, 25 C)?
A: 7.36 log10 K

Q: What about the log K of transfer, gas to solvent ([1]; Propanone, 25 C) of the same molecule?
A: 8.22 log10 K

Q: What about the log K of transfer, gas to solvent ([1]; Propionitrile, 25 C) of the same molecule?
A: 8.07 log10 K

Q: And the log K of transfer, gas to solvent ([1]; Tetrahydrofuran, 25 C)?
A: 8.71 log10 K

Q: What about the log K of transfer, gas to solvent ([1]; Toluene, 25 C) of the same molecule?
A: 8.3 log10 K

Q: And the log K of transfer, gas to solvent ([1]; Water, 25 C)?
A: 3.03 log10 K

Q: What about the log K of transfer, water to solvent ([2]; 2-Methylpropan-1-ol, 25 C) of the same molecule?
A: 4.13 log10 K

Q: And the log K of transfer, water to solvent ([2]; 2-Methylpropan-2-ol, 25 C)?
A: 4.09 log10 K

Q: And the log K of transfer, water to solvent ([2]; 3-Methylbutan-1-ol, 25 C)?
A: 4.25 log10 K

Q: And the log K of transfer, water to solvent ([2]; Acetone, 25 C)?
A: 5.19 log10 K

Q: What about the log K of transfer, water to solvent ([2]; Acetonitrile, 25 C) of the same molecule?
A: 4.63 log10 K

Q: What about the log K of transfer, water to solvent ([2]; Benzene, 25 C) of the same molecule?
A: 5.35 log10 K

Q: And the log K of transfer, water to solvent ([2]; Butan-1-ol, 25 C)?
A: 4.39 log10 K

Q: And the log K of transfer, water to solvent ([2]; Butan-2-ol, 25 C)?
A: 4.23 log10 K

Q: And the log K of transfer, water to solvent ([2]; Butanone, 25 C)?
A: 5.29 log10 K

Q: What about the log K of transfer, water to solvent ([2]; Butyronitrile, 25 C) of the same molecule?
A: 5.14 log10 K

Q: And the log K of transfer, water to solvent ([2]; CCl4, 25 C)?
A: 5.14 log10 K

Q: And the log K of transfer, water to solvent ([2]; Chlorobenzene, 25 C)?
A: 5.42 log10 K

Q: What about the log K of transfer, water to solvent ([2]; Chloroform, 25 C) of the same molecule?
A: 5.37 log10 K

Q: What about the log K of transfer, water to solvent ([2]; Cyclohexane, 25 C) of the same molecule?
A: 4.49 log10 K

Q: What about the log K of transfer, water to solvent ([2]; Cyclohexanone, 25 C) of the same molecule?
A: 5.5 log10 K

Q: What about the log K of transfer, water to solvent ([2]; Decan-1-ol, 25 C) of the same molecule?
A: 4.68 log10 K

Q: What about the log K of transfer, water to solvent ([2]; Di-n-butyl ether, 25 C) of the same molecule?
A: 4.76 log10 K

Q: What about the log K of transfer, water to solvent ([2]; Dichloromethane, 25 C) of the same molecule?
A: 5.59 log10 K

Q: And the log K of transfer, water to solvent ([2]; Diethyl Ether, 25 C)?
A: 4.94 log10 K

Q: What about the log K of transfer, water to solvent ([2]; Ethanol, 25 C) of the same molecule?
A: 4.59 log10 K

Q: What about the log K of transfer, water to solvent ([2]; Heptan-1-ol, 25 C) of the same molecule?
A: 4.55 log10 K

Q: What about the log K of transfer, water to solvent ([2]; Hexadecane, 25 C) of the same molecule?
A: 4.54 log10 K

Q: What about the log K of transfer, water to solvent ([2]; Hexan-1-ol, 25 C) of the same molecule?
A: 4.5 log10 K

Q: And the log K of transfer, water to solvent ([2]; Hexane, 25 C)?
A: 4.42 log10 K

Q: What about the log K of transfer, water to solvent ([2]; Methanol, 25 C) of the same molecule?
A: 4.22 log10 K

Q: What about the log K of transfer, water to solvent ([2]; Octan-1-ol(dry), 25 C) of the same molecule?
A: 4.52 log10 K

Q: What about the log K of transfer, water to solvent ([2]; Pentan-1-ol, 25 C) of the same molecule?
A: 4.43 log10 K

Q: And the log K of transfer, water to solvent ([2]; Propan-1-ol, 25 C)?
A: 4.33 log10 K

Q: What about the log K of transfer, water to solvent ([2]; Propan-2-ol, 25 C) of the same molecule?
A: 4.33 log10 K

Q: What about the log K of transfer, water to solvent ([2]; Propionitrile, 25 C) of the same molecule?
A: 5.04 log10 K

Q: What about the log K of transfer, water to solvent ([2]; Tetrahydrofuran, 25 C) of the same molecule?
A: 5.68 log10 K

Q: And the log K of transfer, water to solvent ([2]; Toluene, 25 C)?
A: 5.27 log10 K

Q: And the log K of transfer, water to solvent [3]?
A: 4.45 log10 K
